# Patent US8513271B2, “Pyrimidine compounds as delta opioid receptor modulators” (Janssen Pharmaceutica, NV, priority 2009, dated 2013)
# Read-outs that look alike come from different tables or passages of the source.
# Columns and labels:
# delta opioid receptor [1] = molecular target: T1, delta opioid receptor (Rattus norvegicus, UniProt P33533); assay: Rat brain delta opioid receptor binding assay; conditions: rat forebrain, [3H]naltrindole ligand
# T1 construct: the forebrains were homogenized in Tris buffer in a Teflon®-glass homogenizer; from tissue; host or cells: forebrain of male Wistar rats, particulate (membrane) preparation
# T1 sequence (P33533 whole entry): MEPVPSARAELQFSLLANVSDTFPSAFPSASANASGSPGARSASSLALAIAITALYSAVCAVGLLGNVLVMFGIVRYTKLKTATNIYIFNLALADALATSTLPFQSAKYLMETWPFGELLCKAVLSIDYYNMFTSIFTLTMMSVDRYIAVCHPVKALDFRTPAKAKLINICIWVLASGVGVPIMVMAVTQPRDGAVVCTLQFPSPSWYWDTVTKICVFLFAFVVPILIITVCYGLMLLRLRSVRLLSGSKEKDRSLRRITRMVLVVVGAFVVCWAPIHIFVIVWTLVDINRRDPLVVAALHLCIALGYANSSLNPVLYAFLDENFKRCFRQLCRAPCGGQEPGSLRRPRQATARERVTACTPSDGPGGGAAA
# mu opioid receptor = molecular target: T2, mu opioid receptor (Rattus norvegicus, UniProt P33535); assay: Rat brain mu opioid receptor binding assay; conditions: rat forebrain, [3H]DAMGO ligand; read-out: μ-binding Ki
# T2 construct: the forebrains were homogenized in Tris buffer in a Teflon®-glass homogenizer; from tissue; host or cells: forebrain of male Wistar rats, particulate (membrane) preparation
# T2 sequence (P33535 whole entry): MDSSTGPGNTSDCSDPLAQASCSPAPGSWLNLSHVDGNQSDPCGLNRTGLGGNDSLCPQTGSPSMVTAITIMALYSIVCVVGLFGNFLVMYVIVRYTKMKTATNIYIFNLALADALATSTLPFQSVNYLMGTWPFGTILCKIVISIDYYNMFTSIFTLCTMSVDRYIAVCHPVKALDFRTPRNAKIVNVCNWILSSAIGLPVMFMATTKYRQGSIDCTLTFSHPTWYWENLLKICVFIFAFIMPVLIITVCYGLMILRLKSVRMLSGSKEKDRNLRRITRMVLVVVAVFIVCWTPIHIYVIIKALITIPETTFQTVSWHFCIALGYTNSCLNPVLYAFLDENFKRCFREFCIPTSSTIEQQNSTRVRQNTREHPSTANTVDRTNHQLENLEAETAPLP
# delta opioid receptor [2] = molecular target: T3, delta opioid receptor (Mus musculus, UniProt P32300); assay: [35S]GTPγS binding assay in NG108-15 cell membranes (delta opioid functional assay), 200 nM screen; format: biochemical; conditions: NG108-15 cell membranes; for EC50: averages if tested more than once; for GTPγS δ-opioid receptor Rel Efficacy: relative efficacy from dose response
# T3 construct: NG108-15 cell membranes were purchased from Applied Cell Sciences (Rockville, Md.); host or cells: NG108-15 cell membranes
# T3 sequence (P32300 whole entry): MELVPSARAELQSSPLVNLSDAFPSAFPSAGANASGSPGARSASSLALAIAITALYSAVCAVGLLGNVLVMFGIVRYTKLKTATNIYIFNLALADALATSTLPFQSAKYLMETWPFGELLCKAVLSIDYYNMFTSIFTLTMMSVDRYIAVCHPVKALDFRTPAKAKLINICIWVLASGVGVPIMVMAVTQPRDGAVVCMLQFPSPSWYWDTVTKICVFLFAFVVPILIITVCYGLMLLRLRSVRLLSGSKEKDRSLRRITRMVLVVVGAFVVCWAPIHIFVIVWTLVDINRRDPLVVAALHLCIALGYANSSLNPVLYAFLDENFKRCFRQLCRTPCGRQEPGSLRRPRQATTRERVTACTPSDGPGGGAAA
# [3] = δ-binding (Naltrindole ligand) Ki
# [4] = read-out: δ-binding (Naltrindole ligand) Ki
# [5] = read-out: GTPγS δ-opioid receptor EC50
Structure (SMILES),Ki (delta opioid receptor [1]; [3]) [nM],Ki (mu opioid receptor) [nM],Ki (delta opioid receptor [1]; [4]) [nM],EC50 (delta opioid receptor [2]; [5]) [µM],GTPγS δ-opioid receptor Rel Efficacy (delta opioid receptor [2]),EC50 (delta opioid receptor [2]; GTPγS δ-opioid receptor EC50 (μM)) [µM]
COc1ccc(Oc2nc(-c3ccc(NC(C)=O)cc3)ncc2NC[C@@H]2CCCN2)cc1 [Cpd 43],4,523,–,–,–,–
COc1ccc(-c2ncc(NC[C@@H]3CCCN3)c(Oc3ccc(N)cc3)n2)cn1 [Cpd 44],–,2690,4,–,–,–
COc1ccc(Oc2nc(-c3cccc(N)c3)ncc2NC[C@@H]2CCCN2)cc1 [Cpd 45],–,812,11,–,–,–
Nc1ccc(Oc2nc(-c3cccnc3)ncc2NC[C@@H]2CCCN2)cc1 [Cpd 46],27,3550,–,–,–,–
COc1ccc(Oc2nc(-c3nc4ccccc4s3)ncc2NC[C@@H]2CCCN2)cc1 [Cpd 47],6,1130,–,–,–,–
COc1ccc(Oc2nc(-c3nccs3)ncc2NC[C@@H]2CCCN2)cc1 [Cpd 48],24,862,–,–,–,–
COc1ccc(Oc2nc(-c3cc4ccccc4s3)ncc2NC[C@@H]2CCCN2)cc1 [Cpd 49],–,3560,103,–,–,–
COc1ccc(Oc2nc(-c3cccc(C(F)(F)F)c3)ncc2NC[C@@H]2CCCN2)cc1 [Cpd 50],55,597,–,–,–,–
COc1ccc(Oc2nc(-c3cccc(OC(F)(F)F)c3)ncc2NC[C@@H]2CCCN2)cc1 [Cpd 51],22,1030,–,–,–,–
COc1ccc(Oc2nc(-c3cnc(SC)nc3)ncc2NC[C@@H]2CCCN2)cc1 [Cpd 52],0.4,539,–,–,–,–
COc1ccc(Oc2nc(-c3cnc(OC)nc3)ncc2NC[C@@H]2CCCN2)cc1 [Cpd 53],0.2,591,–,–,–,–
COc1ccc(Oc2nc(-c3cc(F)cc(F)c3)ncc2NC[C@@H]2CCCN2)cc1 [Cpd 55],21,2050,–,–,–,–
COc1ccc(Oc2nc(-c3ccn[nH]3)ncc2NC[C@@H]2CCCN2)cc1 [Cpd 61],–,3990,259,–,–,–
COc1ccc(Oc2nc(-c3c(C)noc3C)ncc2NC[C@@H]2CCCN2)cc1 [Cpd 62],–,1920,544,–,–,–
COc1ccc(Oc2nc(-c3cc(F)cc(OC)c3)ncc2NC[C@@H]2CCCN2)cc1 [Cpd 70],47,2250,–,–,–,–
Oc1ccc(Oc2nc(-c3ccc(O)nc3)ncc2NCC2CCCN2)cc1 (centres unmarked) [Cpd 75],36,5120,–,–,–,–

Structure (SMILES),Ki (delta opioid receptor [1]; [3]) [nM],Ki (mu opioid receptor) [nM],Ki (delta opioid receptor [1]; [4]) [nM],EC50 (delta opioid receptor [2]; [5]) [µM],GTPγS δ-opioid receptor Rel Efficacy (delta opioid receptor [2]),EC50 (delta opioid receptor [2]; GTPγS δ-opioid receptor EC50 (μM)) [µM]
COc1ccc(Oc2nc(-c3ccc4nccnc4c3)ncc2NC[C@@H]2CCCN2)cc1 [Cpd 76],–,333,111,–,–,–
COc1ccc(Oc2nc(-c3cnc4[nH]ccc4c3)ncc2NC[C@@H]2CCCN2)cc1 [Cpd 77],–,313,154,–,–,–
COc1ccc(Oc2nc(-c3ccc4nonc4c3)ncc2NC[C@@H]2CCCN2)cc1 [Cpd 78],75,1880,–,–,–,–
COc1ccc(Oc2nc(-c3cncnc3)ncc2NC[C@@H]2CC(F)(F)CN2)cc1 [Cpd 79],95,> 10000,–,–,–,–
COc1ccc(Oc2nc(-c3cnc(N)nc3)ncc2NC[C@@H]2CCCN2)cc1 [Cpd 81],–,569,355,–,–,–
COc1ccc(Oc2nc(-c3cnc(N(C)C)nc3)ncc2NC[C@@H]2CCCN2)cc1 [Cpd 82],28,1050,–,–,–,–
COc1ccc(Oc2nc(-c3cnc(N4CCOCC4)nc3)ncc2NC[C@@H]2CCCN2)cc1 [Cpd 83],14,673,–,–,–,–
COc1ccc(Oc2nc(-c3cnc(N4CCN(C)CC4)nc3)ncc2NC[C@@H]2CCCN2)cc1 [Cpd 84],–,338,16,–,–,–
COc1cccc(Oc2nc(-c3cncc(C#N)c3)ncc2NC[C@@H]2CCCN2)c1 [Cpd 98],3,102,–,–,–,–
COc1ccc(Oc2nc(-c3cncc(C#N)c3)ncc2NCC2CNCCO2)cc1 (centres unmarked) [Cpd 275],46,–,–,0.922,–,–
COc1ccc(Oc2nc(-c3cncnc3)ncc2NCC2CNCCO2)cc1 (centres unmarked) [Cpd 277],–,–,32,1.09,1.012,–
COc1ccc(Oc2nc(-c3cncc(C#N)c3)ncc2NC[C@H]2COCCN2)cc1 [Cpd 280],–,–,6,0.181,0.998,–
COc1ccc(Oc2nc(-c3cncc(C#N)c3)ncc2NC[C@H](C)N)cc1 [Cpd 292],2,–,–,0.363,–,–
COc1ccc(Oc2nc(-c3cncc(C#N)c3)ncc2NCCN)cc1 [Cpd 293],8,–,–,0.317,–,–
COc1ccc(Oc2nc(-c3cncc(C#N)c3)ncc2NC2CCC(N)CC2)cc1 (centres unmarked) [Cpd 298],4,–,–,–,1.012,0.087
COc1ccc(Oc2nc(-c3cncnc3)ncc2NC[C@H]2CCCC[C@@H]2N)cc1 [Cpd 300],–,–,21,1.05,0.968,–
